Assay results taken from patent US9023826B2 (L'Oreal S.A., priority 2012, dated 2015).

Assay: Solubility in water, with or without hydrotropes, at room temperature
Format: physicochemical

Nc1ncnc2c1ncn2[C@@H]1O[C@H](CO)[C@@H](O)[C@H]1O [Adenosine]
stability of adenosine/hydrotropes solution in water on further dilution or concentration: stable | concentration of stable clear solution obtained (5% nicotinamide and 5% caffeine in water): 3 % (w/w)
